These results are taken from patent US9308238B2, “Compositions and methods for modulating EMT and uses thereof” (Whitehead Institute for Biomedical Research, priority 2010, dated 2016).

Common to all, as to format: cell-based, human
One assay concerns HMLE^24+ cells. Kind of assay: RT-PCR / immunoblot of EMT markers and EMT-TFs in HMLE^24+ cells. The protocol:
FIGS. 5A-5H. Concomitant stimulation of Wnt and TGF-beta pathways allows HMLE^24+ cells to enter into a mesenchymal and SC-like state. (FIG. 5A) RT-PCR: N-Cadherin, Zeb1 and Zeb2, L32 was loading control, n=3. Prior RNA isolation, HMLE^24+-shGFP or -shSFRP1 (stable knockdown of SFRP1, FIG. 12A) cells were treated for 3 days with daily doses of indicated factors: anti-DKK1 antibody (10 μg/ml), anti-E-Cadherin antibody (1 μg/ml), TGF-beta 1 (5 ng/ml), Wnt5a (250 ng/ml), (FIG. 5B) Brightfield microscopy: images of control, TGF-beta- and iEMT-cocktail treated HMLE^24+ cells after 14 days of treatment as indicated (see also FIG. 12D). (FIG. 5C) RT-PCR: Zeb1, Zeb2, E-Cadherin and N-Cadherin, L32 was loading control, n=3. After 14 day treatment, cells were expanded in absence of further stimulation for 4 passages. […] (FIG. 5G) Lung metastasis: cells expanded for 8 passages after cessation of treatment as described in (C) were transformed with RAS; 1.0×10^5 cells were injected into the mammary fat pads of mice; GFP-labeled metastases on the surface of the lungs were quantified; *control vs. all other groups, p<0.05, n=5 mice/group. […]
Immunoblots. Protein was extracted with RIPA lysis buffer and concentration determined by the Lowry assay (Biorad). […]
(In general: A western blot detects proteins with antibodies after separation by electrophoresis.)

Assay [1] has as its system Smad transcriptional activity. Kind of assay: Smad luciferase reporter assay (SBE4-luc), HMLE^24+ cells. Conditions: HMLE^24+ cells treated with TGF-beta (5 ng/ml, 30 min). The text has this:
FIGS. 12A-12F. Concomitant stimulation of Wnt and TGF-beta pathways allows HMLE^24+ cells to enter into a mesenchymal and SC-like state. (FIG. 12A) RT-PCR: SFRP1, L32 was loading control, n=3; SFRP1 mRNA levels in HMLE^24+ stably expressing two hairpin-encoding vectors (shSFRP1a and -b) compared cells expressing a control hairpin targeting GFP (shGFP), HMLE^24+-shSFRP1b were used for iEMT experiments. (FIG. 12B) Flow cytometry: Expression of CD44 and CD24 cell-surface markers in HMLE, HMLE^24+-shGFP and -shSFRP1 cells. […] (FIG. 12F) Growth curves: proliferation of indicated cell lines was monitored by the MTS assay for 3 days, 8 passages after cessation of 14 day treatment as described in (D), n=12.
Luciferase assays. […] Lysates were collected 24-48 hr after transfection, and firefly and Renilla luciferase activities were measured with a Dual-Luciferase Reporter System (Promega).

In a further assay the test system is primary MECs. Kind of assay: Proliferation of primary MECs. Conditions: data not shown. The text has this: We also undertook to test whether the autocrine loops operating in HTwist and MSP cells enabled basal MECs to maintain their self-renewal and migratory abilities. […] In addition, we blocked autocrine Wnt signaling through application of recombinant SFRP1. After a 5-day, daily treatment with both TGF-beta inhibitors or SFRP1 in monolayer cultures, basal cells were submitted to migration and mammosphere assays in the absence of further treatment.
Primary mammary epithelial cell culture. Single-cell suspensions of primary human mammary epithelial cells (MECs) were generated from reduction mammoplasties of pre-menopausal women as previously described (Stingl et al., 2001), Data from three donors are included in this study. Primary MECs were cultured on collagen I-coated plates (Millipore) in MEGM medium (Lonza) supplemented with 1% Fetal Bovine Serum in a humidified 4% O2, 5% CO2, atmosphere.

On to “TGF-beta 1: recombinant TGF-beta 1 protein, used at 5 ng/ml”, for which the “induction of N-Cadherin, Zeb1 or Zeb2” value in the assay on HMLE^24+ cells (3 days treatment) was “did not result in a significant induction”. Also, in the assay with HMLE^24+ cells (14 day treatment, then expanded without stimulation), the E-/N-Cadherin expression result is “marginal upregulation of N-Cadherin”. Further, the “upregulation of Smad-reporter activity” value in assay [1] amounted to 1.5 fold.

B1: BMP4: Recombinant BMP4 protein obtained from Stemgent (protein, UniProt P12644 293-408, looked up)
Bone morphogenetic protein 4: SPKHHSQRARKKNKNCRRHSLYVDFSDVGWNDWIVAPPGYQAFYCHGDCPFPLADHLNSTNHAIVQTLVNSVNSSIPKACCVPTELSAISMLYLDEYDKVVLKNYQEMVVEGCGCR
As for B1, the “effect on proliferation of primary MECs” value in the assay with primary MECs is “strong anti-proliferative effect”.
